Results from article PMC10046369, “Low-Affinity/High-Selectivity Dopamine Transport Inhibition Sufficient to Rescue Cognitive Functions in the Aging Rat” (Biomolecules, 2023).

Key:
Experiment in all cases: biochemical
Design in all cases: KINOMEscan competition binding panel, per cent of control
Details in all cases: read-out: %Ctrl @ 2800nM
ACVR1B = ACVR1B (Homo sapiens, UniProt P36896)
Procedure, shortened: (§1)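 Values are expressed as percent of control, calculated as ((test − positive control)/(negative control − positive control)) × 100, so lower numbers mean stronger hits. Binding was measured by KINOMEscan competition assay in a 450-kinase human panel including disease mutants, using the contractor's validated protocol.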

BMPR1B = BMPR1B (Homo sapiens, UniProt O00238)
Sequence of BMPR1B (O00238 whole entry): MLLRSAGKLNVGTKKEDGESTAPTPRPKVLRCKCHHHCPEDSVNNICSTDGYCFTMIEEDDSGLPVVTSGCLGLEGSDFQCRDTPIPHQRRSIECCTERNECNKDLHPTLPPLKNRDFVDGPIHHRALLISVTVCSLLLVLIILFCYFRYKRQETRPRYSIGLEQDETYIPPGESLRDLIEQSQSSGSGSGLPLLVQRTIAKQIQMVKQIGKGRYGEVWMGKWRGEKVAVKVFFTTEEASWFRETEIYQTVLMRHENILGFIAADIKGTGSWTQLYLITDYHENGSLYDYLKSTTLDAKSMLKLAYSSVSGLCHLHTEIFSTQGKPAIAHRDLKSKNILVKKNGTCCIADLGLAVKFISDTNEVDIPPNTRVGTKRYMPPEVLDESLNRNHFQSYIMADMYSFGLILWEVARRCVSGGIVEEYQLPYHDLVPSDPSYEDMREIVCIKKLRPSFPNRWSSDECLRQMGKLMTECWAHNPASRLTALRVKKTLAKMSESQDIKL
Procedure, shortened: as §1

BRAF = BRAF (Homo sapiens, UniProt P15056)
Sequence of BRAF (P15056 whole entry): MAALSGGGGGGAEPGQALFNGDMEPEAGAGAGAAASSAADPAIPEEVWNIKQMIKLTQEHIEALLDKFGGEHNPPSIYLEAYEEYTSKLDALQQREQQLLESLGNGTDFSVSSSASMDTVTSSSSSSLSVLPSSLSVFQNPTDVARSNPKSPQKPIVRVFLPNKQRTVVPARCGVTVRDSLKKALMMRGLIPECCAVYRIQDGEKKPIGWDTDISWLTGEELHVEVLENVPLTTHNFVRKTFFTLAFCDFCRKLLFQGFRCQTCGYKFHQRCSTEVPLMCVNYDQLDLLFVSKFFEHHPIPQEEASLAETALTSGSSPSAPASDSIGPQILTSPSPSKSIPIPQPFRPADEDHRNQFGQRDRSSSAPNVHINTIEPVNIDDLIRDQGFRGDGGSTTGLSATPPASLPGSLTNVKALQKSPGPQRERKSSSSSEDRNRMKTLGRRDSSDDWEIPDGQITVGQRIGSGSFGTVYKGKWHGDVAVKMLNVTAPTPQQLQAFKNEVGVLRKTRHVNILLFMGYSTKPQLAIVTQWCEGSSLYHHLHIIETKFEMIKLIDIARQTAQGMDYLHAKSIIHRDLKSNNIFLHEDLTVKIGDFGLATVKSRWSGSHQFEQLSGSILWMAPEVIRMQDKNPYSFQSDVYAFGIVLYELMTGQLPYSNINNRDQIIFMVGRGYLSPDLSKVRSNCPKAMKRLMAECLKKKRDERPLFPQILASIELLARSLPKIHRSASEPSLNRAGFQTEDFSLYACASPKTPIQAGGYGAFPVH
Procedure, shortened: as §1

CAMK1 = CAMK1 (Homo sapiens, UniProt Q14012)
Procedure, shortened: as §1

CDK4-cyclinD1 = molecular target: T1, CDK4-cyclinD1 (Homo sapiens, UniProt P11802)
T1 construct: cyclinD1
Procedure, shortened: as §1

CDKL2 = CDKL2 (Homo sapiens, UniProt Q92772)
Procedure, shortened: as §1

CHEK2 = CHEK2 (Homo sapiens, UniProt O96017)
Procedure, shortened: as §1

DMPK2 = molecular target: T2, DMPK2 (Homo sapiens, UniProt Q6DT37)
T2 construct: gene CDC42BPG
Procedure, shortened: as §1

DRAK2 = molecular target: T3, DRAK2 (Homo sapiens, UniProt O94768)
T3 construct: gene STK17B
Procedure, shortened: as §1

EGFR(L861Q) = EGFR(L861Q) (Homo sapiens, UniProt P00533, L861Q)
Sequence of EGFR(L861Q) (P00533 whole entry L861Q): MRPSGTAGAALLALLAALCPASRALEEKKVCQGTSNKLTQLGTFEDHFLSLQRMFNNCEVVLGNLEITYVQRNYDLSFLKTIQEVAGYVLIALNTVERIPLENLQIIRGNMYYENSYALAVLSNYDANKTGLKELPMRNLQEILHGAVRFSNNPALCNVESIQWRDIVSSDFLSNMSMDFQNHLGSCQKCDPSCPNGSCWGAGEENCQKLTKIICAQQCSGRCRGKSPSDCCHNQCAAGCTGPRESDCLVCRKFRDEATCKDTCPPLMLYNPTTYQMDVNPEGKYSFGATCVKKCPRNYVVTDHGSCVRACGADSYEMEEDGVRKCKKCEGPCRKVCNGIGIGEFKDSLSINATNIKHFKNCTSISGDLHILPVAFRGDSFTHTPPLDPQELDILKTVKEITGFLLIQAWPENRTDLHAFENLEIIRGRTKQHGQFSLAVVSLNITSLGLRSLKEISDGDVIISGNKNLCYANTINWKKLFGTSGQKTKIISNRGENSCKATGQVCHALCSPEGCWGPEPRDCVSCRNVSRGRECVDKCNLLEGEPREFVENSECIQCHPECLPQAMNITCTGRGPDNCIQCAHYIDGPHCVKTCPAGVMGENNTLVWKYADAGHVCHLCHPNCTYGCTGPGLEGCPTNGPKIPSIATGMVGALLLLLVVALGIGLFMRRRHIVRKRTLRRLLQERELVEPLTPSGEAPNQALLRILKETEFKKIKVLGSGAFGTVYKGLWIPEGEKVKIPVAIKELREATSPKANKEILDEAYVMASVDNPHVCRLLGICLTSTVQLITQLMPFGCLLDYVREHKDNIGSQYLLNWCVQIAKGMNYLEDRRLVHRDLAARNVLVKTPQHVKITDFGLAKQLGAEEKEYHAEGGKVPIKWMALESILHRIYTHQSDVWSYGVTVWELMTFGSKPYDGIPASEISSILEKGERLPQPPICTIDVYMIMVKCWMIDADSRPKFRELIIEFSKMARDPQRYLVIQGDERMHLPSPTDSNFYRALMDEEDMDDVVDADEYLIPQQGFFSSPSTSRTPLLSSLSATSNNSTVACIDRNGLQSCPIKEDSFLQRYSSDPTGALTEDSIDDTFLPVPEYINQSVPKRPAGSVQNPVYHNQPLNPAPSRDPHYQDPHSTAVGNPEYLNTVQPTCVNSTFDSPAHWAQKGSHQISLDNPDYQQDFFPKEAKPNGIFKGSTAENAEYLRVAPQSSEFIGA
Procedure, shortened: as §1

EPHA7 = EPHA7 (Homo sapiens, UniProt Q15375)
Procedure, shortened: as §1

FLT3(R834Q) = FLT3(R834Q) (Homo sapiens, UniProt P36888, R834Q)
Procedure, shortened: as §1

LATS1 = LATS1 (Homo sapiens, UniProt O95835)
Procedure, shortened: as §1

MAP4K3 = MAP4K3 (Homo sapiens, UniProt Q8IVH8)
Procedure, shortened: as §1

MEK1 = molecular target: T4, MEK1 (Homo sapiens, UniProt Q02750)
T4 construct: gene MAP2K1
Procedure, shortened: as §1

MEK6 = molecular target: T5, MEK6 (Homo sapiens, UniProt P52564)
T5 construct: gene MAP2K6
T5 sequence (P52564 whole entry): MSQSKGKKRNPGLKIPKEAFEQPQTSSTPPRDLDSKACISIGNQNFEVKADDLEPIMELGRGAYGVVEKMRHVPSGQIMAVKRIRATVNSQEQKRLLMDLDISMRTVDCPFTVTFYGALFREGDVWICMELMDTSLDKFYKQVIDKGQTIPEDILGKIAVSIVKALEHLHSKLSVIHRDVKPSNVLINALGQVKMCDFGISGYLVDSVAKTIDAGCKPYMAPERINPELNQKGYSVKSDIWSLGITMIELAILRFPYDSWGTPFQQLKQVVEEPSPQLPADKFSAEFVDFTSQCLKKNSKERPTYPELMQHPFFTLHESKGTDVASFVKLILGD
Procedure, shortened: as §1

MET(Y1235D) = MET(Y1235D) (Homo sapiens, UniProt P08581, Y1235D)
Procedure, shortened: as §1

NDR2 = molecular target: T6, NDR2 (Homo sapiens, UniProt Q9Y2H1)
T6 construct: gene STK38L
Procedure, shortened: as §1

NEK2 = NEK2 (Homo sapiens, UniProt P51955)
Sequence of NEK2 (P51955 whole entry): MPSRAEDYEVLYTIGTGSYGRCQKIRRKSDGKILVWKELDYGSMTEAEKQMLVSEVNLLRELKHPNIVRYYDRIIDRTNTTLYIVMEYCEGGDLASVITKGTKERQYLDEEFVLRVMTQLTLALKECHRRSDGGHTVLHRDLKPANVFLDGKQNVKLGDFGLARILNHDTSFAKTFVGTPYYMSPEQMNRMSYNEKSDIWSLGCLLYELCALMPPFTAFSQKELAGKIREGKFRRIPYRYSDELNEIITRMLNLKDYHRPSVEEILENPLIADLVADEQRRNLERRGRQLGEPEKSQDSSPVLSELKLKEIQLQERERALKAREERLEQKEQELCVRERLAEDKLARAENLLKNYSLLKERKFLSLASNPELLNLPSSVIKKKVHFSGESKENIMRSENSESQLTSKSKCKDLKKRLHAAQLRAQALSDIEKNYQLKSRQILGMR
Procedure, shortened: as §1

NIK = molecular target: T7, NIK (Homo sapiens, UniProt Q99558)
T7 construct: gene MAP3K14
T7 sequence (Q99558 whole entry): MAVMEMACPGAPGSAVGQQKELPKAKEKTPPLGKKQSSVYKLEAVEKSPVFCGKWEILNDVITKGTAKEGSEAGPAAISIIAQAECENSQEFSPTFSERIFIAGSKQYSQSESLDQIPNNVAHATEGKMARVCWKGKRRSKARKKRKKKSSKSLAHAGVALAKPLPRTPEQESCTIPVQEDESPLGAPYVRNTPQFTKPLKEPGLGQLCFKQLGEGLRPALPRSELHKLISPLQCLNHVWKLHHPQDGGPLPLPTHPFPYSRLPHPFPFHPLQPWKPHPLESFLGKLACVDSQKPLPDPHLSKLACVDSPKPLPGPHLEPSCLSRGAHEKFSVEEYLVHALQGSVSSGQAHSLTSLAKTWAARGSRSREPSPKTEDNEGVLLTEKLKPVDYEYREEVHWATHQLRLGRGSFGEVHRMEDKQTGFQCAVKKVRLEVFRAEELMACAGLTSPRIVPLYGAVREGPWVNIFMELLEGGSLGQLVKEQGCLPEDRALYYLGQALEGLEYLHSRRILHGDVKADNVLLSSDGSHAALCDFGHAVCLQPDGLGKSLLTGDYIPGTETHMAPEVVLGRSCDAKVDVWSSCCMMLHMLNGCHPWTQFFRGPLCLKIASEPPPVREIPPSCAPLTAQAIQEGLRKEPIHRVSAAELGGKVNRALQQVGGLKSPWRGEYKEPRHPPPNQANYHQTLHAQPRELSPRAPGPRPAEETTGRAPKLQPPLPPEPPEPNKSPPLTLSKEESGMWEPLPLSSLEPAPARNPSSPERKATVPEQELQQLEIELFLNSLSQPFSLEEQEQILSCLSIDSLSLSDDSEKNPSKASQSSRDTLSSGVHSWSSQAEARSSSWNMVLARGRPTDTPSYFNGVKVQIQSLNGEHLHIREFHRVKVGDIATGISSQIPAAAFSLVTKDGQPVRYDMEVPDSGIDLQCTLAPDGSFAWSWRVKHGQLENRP
Procedure, shortened: as §1

NIM1 = molecular target: T8, NIM1 (Homo sapiens, UniProt Q8IY84)
T8 construct: gene NIM1K
Procedure, shortened: as §1

PFTAIRE2 = molecular target: T9, PFTAIRE2 (Homo sapiens, UniProt Q96Q40)
T9 construct: gene CDK15
Procedure, shortened: as §1

PIK3CD = PIK3CD (Homo sapiens, UniProt O00329)
Procedure, shortened: as §1

PIM2 = PIM2 (Homo sapiens, UniProt Q9P1W9)
Procedure, shortened: as §1

RIOK1 = RIOK1 (Homo sapiens, UniProt Q9BRS2)
Procedure, shortened: as §1

TRKC = molecular target: T10, TRKC (Homo sapiens, UniProt Q16288)
T10 construct: gene NTRK3
T10 sequence (Q16288 whole entry): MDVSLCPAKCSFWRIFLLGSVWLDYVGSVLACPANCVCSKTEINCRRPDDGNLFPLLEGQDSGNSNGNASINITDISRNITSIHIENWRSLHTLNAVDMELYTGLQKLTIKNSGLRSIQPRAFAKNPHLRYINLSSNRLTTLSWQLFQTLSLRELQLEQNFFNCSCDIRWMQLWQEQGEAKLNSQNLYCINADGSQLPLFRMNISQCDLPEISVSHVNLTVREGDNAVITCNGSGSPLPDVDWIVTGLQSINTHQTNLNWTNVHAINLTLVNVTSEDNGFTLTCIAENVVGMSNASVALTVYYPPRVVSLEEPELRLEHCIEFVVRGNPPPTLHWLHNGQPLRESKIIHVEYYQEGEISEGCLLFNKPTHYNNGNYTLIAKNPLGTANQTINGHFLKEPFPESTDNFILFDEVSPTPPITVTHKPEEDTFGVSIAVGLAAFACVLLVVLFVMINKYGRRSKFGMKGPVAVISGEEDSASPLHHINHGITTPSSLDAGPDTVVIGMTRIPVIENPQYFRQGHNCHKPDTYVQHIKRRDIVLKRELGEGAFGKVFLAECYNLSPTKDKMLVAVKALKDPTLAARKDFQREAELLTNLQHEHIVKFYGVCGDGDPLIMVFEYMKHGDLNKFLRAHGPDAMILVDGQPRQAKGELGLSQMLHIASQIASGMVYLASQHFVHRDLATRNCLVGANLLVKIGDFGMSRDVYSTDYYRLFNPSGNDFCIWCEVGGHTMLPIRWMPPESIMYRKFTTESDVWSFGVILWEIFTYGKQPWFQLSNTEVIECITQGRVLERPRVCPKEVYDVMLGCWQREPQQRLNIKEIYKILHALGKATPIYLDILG
Procedure, shortened: as §1

[O-][S@@+](Cc1cncs1)C(c1ccccc1)c1ccccc1 [S-CE-123, (S)-5-((Benzhydrylsulfinyl)Methyl)Thiazole]
remaining binding at 2.8 µM (ACVR1B): 100%
remaining binding at 2.8 µM (BMPR1B): 100%
remaining binding at 2.8 µM (BRAF): 100%
remaining binding at 2.8 µM (CAMK1): 97%
remaining binding at 2.8 µM (CDK4-cyclinD1): 100%
remaining binding at 2.8 µM (CDKL2): 89%
remaining binding at 2.8 µM (CHEK2): 78%
remaining binding at 2.8 µM (DMPK2): 88%
remaining binding at 2.8 µM (DRAK2): 95%
remaining binding at 2.8 µM (EGFR(L861Q)): 98%
remaining binding at 2.8 µM (EPHA7): 96%
remaining binding at 2.8 µM (FLT3(R834Q)): 90%
remaining binding at 2.8 µM (LATS1): 93%
remaining binding at 2.8 µM (MAP4K3): 100%
remaining binding at 2.8 µM (MEK1): 94%
remaining binding at 2.8 µM (MEK6): 89%
remaining binding at 2.8 µM (MET(Y1235D)): 99%
remaining binding at 2.8 µM (NDR2): 82%
remaining binding at 2.8 µM (NEK2): 96%
remaining binding at 2.8 µM (NIK): 100%
remaining binding at 2.8 µM (NIM1): 97%
remaining binding at 2.8 µM (PFTAIRE2): 100%
remaining binding at 2.8 µM (PIK3CD): 86%
remaining binding at 2.8 µM (PIM2): 100%
remaining binding at 2.8 µM (RIOK1): 77%
remaining binding at 2.8 µM (TRKC): 100%
